Assay results from patent US12064405B2, “Immunosuppressant comprising TSAHC or a pharmaceutically acceptable salts thereof as an active ingredient” (Seoul National University R&DB Foundation, priority 2020, dated 2024).

Legend:
[1] = tested on: SNU449-TM4SF5-HA cell line; assay: RNA-Seq / mRNA-Seq of inflammatory cytokine and chemokine expression in TM4SF5-expressing hepatic epithelial cells; type: cell-based, human; conditions: 10 μM TSAHC for 24 hours
Experimental: To confirm whether the TSAHC treatment affects the expression and secretion of inflammatory cytokines and chemokines in TM4SF5 expression-dependent hepatic epithelial cells, RNA-Seq analysis and mRNA-Seq analysis comparing the mRNA expression were performed in SNU449-HA cell line in which the control vector was safely injected into SNU449, SNU449-TM4SF5-HA cell line injected with TM4SF5 expression vector, and SNU449-TM4SF5-HA cell line treated with 10 μM of TSAHC for 24 hours using the liver tissue of Tg^TM4SF5 overexpressing TM4SF5 or Tm4sf5^−/− KO C57BL/6 mice in Macrogen, Inc. (Seoul, Korea).
The experimental procedure for mRNA-Seq analysis included the followings. […] RNA library was constructed through qPCR using an agilent technologies 2100 bioanalyzer according to qPCR quantification protocol guide. Quality control analysis of the raw reads obtained through sequencing was performed. […] Aligned reads were generated after mapping the pre-treated reads to reference genome using HISAT2 program considering splice. Transcript assembly was performed through the String Tie program using paired information of the aligned reads based on the reference. The expression level obtained through the transcript quantification of each sample was calculated as a normalization value considering the transcript length and depth of coverage. […]

[2] = tested on: Hep3B cell line expressing TM4SF5; assay: qRT-PCR of CCL20 and CXCL10 mRNA in IL-6-treated Hep3B cell line; type: cell-based, human; conditions: IL-6 100 ng/ml, TSAHC 0.1 or 0.5 μM for 24 hours
Experimental: Hep3B cell line expressing TM4SF5 that was not treated with IL-6 or treated at a concentration of 100 ng/ml was treated with or without TSAHC at a concentration of 0.1 or 0.5 μM for 24 hours. Then, qRT-PCR was performed using the cells.
Specifically, to perform qRT-PCR, the cells or tissues were disrupted using Qiazol (Qiagen, USA), to which chloroform was added, and the upper […] layer was separated by centrifugation at 4° C., 12,000×g for 15 minutes. RNA was precipitated by adding isopropanol to the separated […] layer, followed by washing with 70% ethanol. RNA pellet was isolated by centrifugation at 7,500×g for 5 minutes, ethanol was evaporated for 10 minutes, and dissolved in 30 μl of DEPC-water. After removing gDNA from the dissolved RNA, it was reverse transcribed using a reverse transcription kit (Toyobo, Japan) to obtain cDNA. The expression was measured by real-time PCR (Biorad, USA) with the obtained cDNA using 2×Eva green master mix (Labopass, Korea) and 0.4 μM forward/reverse primers. The expression amount was calculated using the modified delta-delta Ct method of Pfaffl.

cells expressing TM4SF5 = assay: Activation of glycolytic function (acidification of extracellular solution, Seahorse); type: cell-based
Experimental: The cells expressing TM4SF5 were treated with vehicle, a negative control compound (4′-methoxy-4-dihydroxychalcone) or TSAHC. Then, the degree of activation of glycolytic function was measured by measuring the acidification of the extracellular solution due to glycolysis while additionally adding glucose at various concentrations using Seahorse equipment.

TM4SF5 and IL6-Rα = target: T1, TM4SF5 and IL6-Rα (Homo sapiens, UniProt O14894); assay: Binding of TM4SF5 and IL6-Rα (streptavidin-agarose precipitation, Western blotting); type: cell-based; conditions: hepatic epithelial cells expressing TM4SF5-Strep; FIG. 10
T1 construct: expressed in transfected cells
T1 sequence (O14894 1-197): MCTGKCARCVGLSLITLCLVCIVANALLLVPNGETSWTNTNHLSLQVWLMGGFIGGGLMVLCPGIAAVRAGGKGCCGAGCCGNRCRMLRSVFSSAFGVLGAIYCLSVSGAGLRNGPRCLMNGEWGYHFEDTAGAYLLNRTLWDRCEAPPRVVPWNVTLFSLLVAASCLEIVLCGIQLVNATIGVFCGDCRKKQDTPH
Experimental: Hepatic epithelial cells were infected with an empty vector (EV) or lentivirus expressing TM4SF5, and TSAHC was not treated (−) or treated (+) thereto. A cell extract was obtained, and TM4SF5-Strep was precipitated using strepavidin-agarose beads, and then Western blotting was performed with the IL-6 receptor, IL-6Rα antibody.

[3] = tested on: cell lines expressing TM4SF5; assay: qRT-PCR of M1-type macrophage chemokines/cytokines CCL2, TNF-α, IL-6, IL-1β; type: cell-based; conditions: cell line expressing TM4SF5, LPS and IFN-γ
Experimental: Cell lines not expressing TM4SF5 (EV) or cell lines expressing thereof (TM4SF5) were treated (+) or not treated with LPS and IFN-γ, treated (+) or not treated with 2-DG (2-Deoxy-D-glucose) as a drug for inhibiting glycolysis at a given concentration, and additionally treated (+) or not treated with TSAHC (−). Then, the mRNA expression levels of CCL2, TNF-α, IL-6, and IL-1β, the chemokines/cytokines indicating the activation of M1-type macrophages, were confirmed by qRT-PCR.

[4] = tested on: mouse model in which liver fibrosis is induced by the treatment of CCl4; assay: CCl4-induced liver damage, inflammation and fibrosis mouse model with TSAHC treatment; type: in vivo; conditions: CCl4-treated mice, 4 weeks
Experimental: In a mouse animal model that can be accompanied by cell damage and inflammation when liver fibrosis is induced by the treatment of CCl4, the animal groups periodically treated (+) or not treated (−) with TSAHC during the CCl4 treatment were obtained. The body weight during 4 weeks of the treatment and the liver tissue weight after 4 weeks were calculated as a ratio (liver/body weight), or the ALT liver levels were measured from blood samples. The liver tissue was obtained and Tm4sf5 mRNA was measured by qRT-PCR.
In an animal model treated with CCl4 to induce liver fibrosis, the animal groups periodically treated (+) or not treated (−) with TSAHC during the CCl4 treatment were obtained. After 4 weeks of the treatment, the liver tissue was obtained and H&E and Masson's trichrome staining was performed.
In an animal model treated with CCl4 to induce liver fibrosis, the animal groups periodically treated (+) or not treated (−) with TSAHC during the CCl4 treatment were obtained. After 4 weeks of the treatment, the liver tissue was obtained and immunostaining was performed for Ccl20 and Cxcl10.
(§1) In a mouse model that can be accompanied by cell damage and inflammation when liver fibrosis is induced by CCl4 treatment, the animal groups periodically treated (+) or not treated (−) with TSAHC during the CCl4 treatment were obtained. After 4 weeks of the treatment, the liver tissue was obtained and immunostaining was performed for F4/80, a macrophage marker.
as §1, with “α-SMA indicating the activation of hepatic stellate cells.” for “F4/80, a macrophage marker.”

binding of TM4SF5 and IL6-Rα (TM4SF5 and IL6-Rα): inhibited
SMILES: Cc1ccc(S(=O)(=O)Nc2ccc(C(=O)/C=C/c3ccc(O)cc3)cc2)cc1 [TSAHC, 4′-(p-toluenesulfonylamido)-4-hydroxychalcone]
expression and secretion of cytokines/chemokines (IL6, IL1β, TNFα, CXCL1, CXCL2, CXCL3, CXCL6, CXCL8, CCL2, CCL5, CCL20, CXCL10, CCR10) according to TM4SF5 expression [1]: suppressed
CCL20 mRNA expression level increased by IL-6 ([2]; FIG. 4A): reduced
CXCL10 mRNA expression level increased by IL-6 ([2]; FIG. 4B): reduced
glycolysis of the cells not expressing TM4SF5 (EV) (cells expressing TM4SF5; EV cell line, FIG. 8B): not changed
glycolytic function of cells expressing TM4SF5 (cells expressing TM4SF5; various concentrations of glucose added, FIG. 8C): decreased
CCL2 mRNA expression level ([3]; FIG. 11A): decreased
TNF-α mRNA expression level ([3]; FIG. 11B): decreased
IL-6 mRNA expression level ([3]; FIG. 11C): decreased
IL-1β mRNA expression level ([3]; FIG. 11D): decreased
Tm4sf5 mRNA expression level in liver tissue ([4]; FIG. 19A): decreased
liver tissue weight and body weight (ratio liver/body weight) ([4]; FIG. 19C): decreased
collagen accumulation (Masson's trichrome staining) ([4]; FIG. 20): decreased
degree of liver tissue damage / irregular cell composition (H&E staining) ([4]; FIG. 20): decreased
Ccl20 mRNA expression level in liver tissue ([4]; FIG. 21): decreased
Cxcl10 mRNA expression level in liver tissue ([4]; FIG. 21): decreased
F4/80 mRNA expression in liver tissue ([4]; FIG. 22B): decreased
α-SMA mRNA expression in liver tissue ([4]; FIG. 23B): decreased
ALT level ([4]; blood samples, FIG. 19B): decreased
